This passage reports TGI and GI50 results from PubChem BioAssay (NCI).

Where “and” joins values, the source holds several entries; their conditions need not be identical. Equal entries are not always repeated.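 Values below derive from 48-hour exposures of cells grown in 96-well plates, with endpoints linearly interpolated between the two concentrations bracketing the appropriate inhibition level. GI50 marks 50% less growth. TGI: total growth inhibition.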

What all share (assay): NCI-60 cell line screen, 48 h
The subject of assay [1] is NCI-H522 lung.
Assay [2] deals with UACC-62 melanoma.
For assay [3], the system named is HCT-116 colon.
Assay [4] concerns OVCAR-8 ovarian.
Assay [5] has as its system PC-3 prostate.
Assay [6] deals with ACHN renal.
The subject of assay [7] is MDA-MB-231 breast.
The subject of assay [8] is SF-268 CNS.
The subject of assay [9] is HT29 colon.
Assay [10] relates to LOX IMVI melanoma.

Regarding `CN(C)CCCN1C(=S)N(CCCN(C)C)c2c3cc(O)ccc3nc3c([N+](=O)[O-])ccc1c23`, the TGI in assay [1] worked out at 9.93 µM; in assay [2], 19.6 µM; in [3], 6.07 µM; in assay [4], 15 µM; in assay [5], 13.3 µM; in [6] it was 11 µM. For the same molecule, the TGI in assay [7] is 25.5 µM; in assay [8] it was 7 µM; in [9] it was 6.31 µM; in [10] it was 5.9 µM.

`COc1cc(NS(C)(=O)=O)ccc1N1Cc2cnc3ccc4[nH]c(C)cc1c4c23`: the TGI in [1] was 80.7 µM; in [2], above 100 µM; in assay [3] it was above 100 µM; in assay [4] it was above 100 µM; in [5] it was above 100 µM; in [6], above 100 µM. In addition, the TGI in [7] is above 100 µM; in assay [8] it was 63.4 µM; in assay [9], above 100 µM; in assay [10], above 100 µM.

Turning to `CC(C)(C)NC(=O)/C(=C\Sc1ccccc1)c1ccc2c(c1)OCO2`, the TGI in assay [1] was 43.3 µM; in assay [2], 57.9 µM; in assay [3] it was 65.8 µM; in assay [4], above 100 µM; in [5] it was 73.7 µM; in [6] it was above 100 µM. Further, the TGI in [7] came out at 52.8 µM; in assay [8], 52.3 µM; in assay [9], 35.9 µM; in assay [10], 48.9 µM.

On to `O=C1CN2C(c3ccccc3)=NN(c3ccc([N+](=O)[O-])cc3)C2(c2ccccc2)c2cc(Cl)ccc2N1CC1CC1` (stereo unspecified), for which the TGI in assay [1], in assay [2], in assay [3], in [4], in [5] and in assay [6] was above 100 µM each time. Moreover, the TGI in [7], in assay [8], in assay [9] and in assay [10] was above 100 µM throughout.

As for `CC1CC[C@@]2(OC1)OC1C[C@H]3[C@@H]4CC[C@H]5CC(OC6OC(CO)C(OC7OC(CO)C(O)C(O)C7OC7OC(CO)C(O)C(O)C7O)C(O)C6O)CCC5(C)[C@H]4CCC3(C)C1[C@@H]2C` (stereo partly specified), the TGI in [1] was found to be 5.19 µM; in assay [2], 16.5 µM; in assay [3] it was 7.34 µM; in assay [4] it was 14.3 µM; in [5] it was 1.52 µM; in assay [6] it was 6.06 µM. The TGI was 3.04 µM in [7], 8.77 µM in assay [8], 1.86 µM in assay [9] and 5.85 µM in [10].

Consider `O=C1/C(=C\c2cccc(Oc3ccccc3)c2)S(=O)(=O)C(c2ccccc2)N1Cc1ccccc1` (stereo unspecified), for which the TGI in assay [1] was 33.7 µM; in assay [2], 57.7 µM; in assay [3] it was above 100 µM; in [4], 53.4 µM; in assay [5] it was above 100 µM; in assay [6] it was 49.4 µM. For the same molecule, the TGI came to 68.1 µM in [7] and 62.9 µM in assay [10].

For `COc1cc2c(cc1-c1c(C)noc1C)cc(C)c(=O)n2Cc1ccccn1`, the GI50 in [1] was 0.542 µM; in assay [2], 0.407 µM; in assay [3] it was 1.91 µM; in assay [5] it was 3.47 µM; in assay [6], 1.45 µM; in assay [7], 0.809 µM. Moreover, the GI50 was 4.22 µM in [8], 0.469 µM in assay [9] and 0.884 µM in assay [10]. For the same molecule, the TGI in assay [1] is 10.9 µM; in assay [2], 15 µM; in assay [3], above 100 µM; in [5] it was above 100 µM; in [6], above 100 µM; in assay [7], above 100 µM. For the same molecule, the TGI was above 100 µM in assay [8], above 100 µM in assay [9] and 10.8 µM in assay [10].

In the case of `c1ccc2sc(SCSc3nc4ccccc4s3)nc2c1`, the TGI in assay [1], in assay [2], in [3], in [4], in assay [5] and in assay [6] was above 100 µM each time. For the same molecule, the TGI in assay [7], in assay [8], in [9] and in [10] was above 100 µM each time.

For `CC[C@H]1CN2CCc3cc(OC)c(OC)cc3[C@@H]2C[C@@H]1C[C@H]1NCCc2cc(OC)c(OC)cc21`, the TGI in assay [1] is 0.0392 µM and 0.0356 µM; in assay [2], 0.206 µM and 0.0957 µM; in [3] it was 0.0805 µM and 0.153 µM; in [4] it was 0.532 µM and 1.09 µM; in [5], 0.103 µM; in assay [6], 0.0974 µM and 0.428 µM. For the same molecule, the TGI was 0.0458 µM in assay [7]; 0.242 µM and 0.168 µM in [9]; 0.0205 µM in assay [10].

`CCOc1cc(C2CC(c3ccc(NS(=O)(=O)c4cc([N+](=O)[O-])ccc4C)cc3)=NN2C(=O)c2ccccc2)ccc1O` (stereo unspecified): the TGI in assay [1] was 64.5 µM; in assay [3], 56.5 µM; in assay [4] it was above 100 µM; in assay [5] it was above 100 µM; in assay [6], 85.3 µM; in assay [7], 48.1 µM. For the same molecule, the TGI in [8], in assay [9] and in [10] was above 100 µM in each case.

Regarding `COc1cc([N+](=O)[O-])c(OC)cc1-c1nc2sc(Cl)cn2c1/C=N/Nc1ccccn1`, the GI50 is above 50 µM in assay [1]; 26 µM in [2]; 17.3 µM in assay [4]; 16.4 µM in assay [5]; 8.43 µM in assay [6]; 8.61 µM in [7]. Moreover, the results for the GI50 in [8], in assay [9] and in assay [10] were 19.2 µM, above 50 µM and above 50 µM, respectively. Moreover, the TGI in [1] is above 50 µM; in [2] it was above 50 µM; in [4] it was above 50 µM; in [5], above 50 µM; in assay [6], 16.9 µM; in assay [7] it was 30.7 µM. In addition, the TGI in assay [8], in [9] and in assay [10] was above 50 µM in each case.

`COC(=O)c1c2c(cc3c1CC1(C3)Cc3cc4c(c(C(=O)OC)c3C1)CCCC4)CCCC2`: the TGI is above 100 µM in assay [1]; above 100 µM in assay [2]; above 100 µM in assay [3]; above 100 µM in [4]; 39.5 µM in [5]; above 100 µM in [6]. Further, the TGI in assay [7], in [9] and in assay [10] was above 100 µM throughout.
